The record followed here is patent US20210300924A1, “5-[6-[[3-(4,5,6,7-TETRAHYDROPYRAZOLO[4,3-C]PYRIDIN-1-YL)AZETIDIN-1-YL]METHYL]MORPHOLIN-4-YL]QUINOLINE-8-CARBONITRILE DERIVATIVES AND SIMILAR COMPOUNDS AS TLR7-9 ANTAGONISTS FOR TREATING SYSTEMIC LUPUS ERYTHEMATOSUS” (Hoffmann-La Roche Inc., priority 2018, published 2021).

The target in data set [1] is T1, CYP2D6 (Homo sapiens, UniProt P10635).
T1 construct: tissue BD-Gentest 452117; host or cells: human liver microsomes
Kind of data set: CYP inhibition assay in human liver microsome. The format is in vitro ADME. The following applies: human liver microsomes, probe dextromethorphan, dextromethorphan substrate, percentage inhibition <0: not or weak inhibitor, read-out: CYP 2D6 inhibition % @ 10 μM. The procedure:
This is a high throughput screening assay used for assessment of reversible inhibition of CYP2D6 activity of test compounds in human liver microsome (HLM) in early discovery stage.
10 mM DMSO stock solutions of test compounds were diluted in DMSO to generate 2 mM intermediate stock solution. 250 nL of intermediate stock solution were transferred in duplicate into 3 separate 384 well microtitre plates (assay-ready plates). A mixture of HLM and each substrate was made up. 45 μL of HLM substrate mix was then transferred to each well of an assay ready plate and mixed. The negative (solvent) and positive control (standard inhibitor for CYP 2D6) were included in each assay ready plate. The assay ready plate was warmed to 37° C. in an incubator over 10 minutes. 5 μL pre-warmed NADPH regenerating system was added to each incubation well to start the reaction. Final incubation volume was 50 μL. The assay plate then was placed back in the 37° C. incubator. After 10 minutes incubation, incubates were quenched by addition of 50 μL 100% acetonitrile containing internal standards (20 ng/mL D3-Dextrorphan). The supernatants were collected for RapidFire/MS/MS analysis.
RapidFire online solid phase extraction/sample injection system (Agilent) coupled with API4000 triple quadrupole mass spectrometer (AB Sciex) were used for sample analysis. The mobile phase composed of acetonitrile and water supplemented with 0.1% formic acid. A C4 solid phase extraction cartridge is used for sample separation. MS detection is achieved in positive ion MRM mode.
Peak areas for substrate, metabolite and internal standard are determined using the RapidFire integrator software (version 3.6.12009.12296). Peak area ratios (PAR) of metabolite and internal standard (stable-labelled metabolite) are then calculated. The measurement window for each experiment is then defined:
PAR (0% activity)=average PAR for all incubations containing concentrated inhibitor;
Par (100% activity)=average PAR for all incubations containing no inhibitor (DMSO controls);
% Activity (test inhibitor)=
[PAR(test inhibitor)−PAR(0% activity)]/[PAR(100% activity)−PAR(0% activity)]; % Inhibition (test inhibitor)=100−% Activity (test inhibitor).
(In general: Liver microsomes are a subcellular fraction often used to study metabolism.)

The target in data set [2] is T2, human TLR7 (Homo sapiens, UniProt Q9NYK1).
T2 construct: host or cells: HEK293 (HEK-Blue hTLR7)
T2 sequence (Q9NYK1 27-1049): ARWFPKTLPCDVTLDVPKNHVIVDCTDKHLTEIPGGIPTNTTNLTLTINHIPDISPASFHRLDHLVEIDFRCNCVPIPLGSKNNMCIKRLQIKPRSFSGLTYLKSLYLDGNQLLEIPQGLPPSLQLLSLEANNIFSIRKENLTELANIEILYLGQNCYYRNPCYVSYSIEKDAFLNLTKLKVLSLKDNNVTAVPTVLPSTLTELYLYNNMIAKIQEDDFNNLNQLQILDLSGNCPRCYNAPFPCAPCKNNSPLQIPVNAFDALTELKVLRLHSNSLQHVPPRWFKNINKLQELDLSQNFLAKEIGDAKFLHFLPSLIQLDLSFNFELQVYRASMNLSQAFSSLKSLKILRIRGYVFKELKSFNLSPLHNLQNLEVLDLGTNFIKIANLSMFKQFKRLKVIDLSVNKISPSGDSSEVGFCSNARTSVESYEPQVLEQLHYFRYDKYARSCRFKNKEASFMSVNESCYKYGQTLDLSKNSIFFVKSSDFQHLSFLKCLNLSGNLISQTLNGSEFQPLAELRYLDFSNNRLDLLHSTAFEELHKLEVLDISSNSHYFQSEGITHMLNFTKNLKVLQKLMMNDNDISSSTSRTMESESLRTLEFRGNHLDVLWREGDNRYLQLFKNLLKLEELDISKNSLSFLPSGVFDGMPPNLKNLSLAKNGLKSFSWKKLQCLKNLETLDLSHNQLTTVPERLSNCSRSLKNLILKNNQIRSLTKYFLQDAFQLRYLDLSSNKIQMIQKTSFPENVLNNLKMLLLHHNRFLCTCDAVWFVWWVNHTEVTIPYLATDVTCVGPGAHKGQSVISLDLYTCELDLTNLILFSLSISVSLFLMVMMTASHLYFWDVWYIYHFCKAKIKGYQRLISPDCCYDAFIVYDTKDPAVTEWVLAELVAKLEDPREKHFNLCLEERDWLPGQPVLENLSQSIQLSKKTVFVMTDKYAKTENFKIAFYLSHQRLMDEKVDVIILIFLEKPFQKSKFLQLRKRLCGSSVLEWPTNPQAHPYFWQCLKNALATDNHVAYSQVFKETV
The experiment in a line: HEK293-Blue-hTLR-7 cells assay. It is filed as cell-based. The following applies: HEK293-Blue-hTLR7 cells, R848 stimulation, 20 hrs, SEAP reporter; read-out: HEK/hTLR7 IC50. From the text:
HEK293-Blue-hTLR-7 cells assay:
A stable HEK293-Blue-hTLR-7 cell line was purchased from InvivoGen (Cat. #: hkb-htlr7, San Diego, Calif., USA). These cells were originally designed for studying the stimulation of human TLR7 by monitoring the activation of NF-κB. A SEAP (secreted embryonic alkaline phosphatase) reporter gene was placed under the control of the IFN-β minimal promoter fused to five NF-κB and AP-1-binding sites. The SEAP was induced by activating NF-κB and AP-1 via stimulating HEK-Blue hTLR7 cells with TLR7 ligands. Therefore the reporter expression was declined by TLR7 antagonist under the stimulation of a ligand, such as R848 (Resiquimod), for incubation of 20 hrs. The cell culture supernatant SEAP reporter activity was determined using QUANTI-Blue™ kit (Cat. #: rep-qb1, Invivogen, San Diego, Ca, USA) at a wavelength of 640 nm, a detection medium that turns purple or blue in the presence of alkaline phosphatase.
HEK293-Blue-hTLR7 cells were incubated at a density of 250,000-450,000 cells/mL in a volume of 170 μL in a 96-well plate in Dulbecco's Modified Eagle's medium (DMEM) containing 4.5 g/L glucose, 50 U/mL penicillin, […], […], 2 mM L-glutamine, 10% (v/v) heat-inactivated fetal bovine serum with addition of 20 μL test compound in a serial dilution in the presence of final DMSO at 1% and 10 μL of 20 uM R848 in above DMEM, perform incubation under 37° C. in a CO2 incubator for 20 hrs. Then 20 μL of the supernatant from each well was incubated with 180 μL Quanti-blue substrate solution at 37° C. for 2 hrs and the absorbance was read at 620˜655 nm using a spectrophotometer. The signaling pathway that TLR7 activation leads to downstream NF-κB activation has been widely accepted, and therefore similar reporter assay was modified for evaluating TLR7 antagonist.

T1 sequence (P10635 whole entry): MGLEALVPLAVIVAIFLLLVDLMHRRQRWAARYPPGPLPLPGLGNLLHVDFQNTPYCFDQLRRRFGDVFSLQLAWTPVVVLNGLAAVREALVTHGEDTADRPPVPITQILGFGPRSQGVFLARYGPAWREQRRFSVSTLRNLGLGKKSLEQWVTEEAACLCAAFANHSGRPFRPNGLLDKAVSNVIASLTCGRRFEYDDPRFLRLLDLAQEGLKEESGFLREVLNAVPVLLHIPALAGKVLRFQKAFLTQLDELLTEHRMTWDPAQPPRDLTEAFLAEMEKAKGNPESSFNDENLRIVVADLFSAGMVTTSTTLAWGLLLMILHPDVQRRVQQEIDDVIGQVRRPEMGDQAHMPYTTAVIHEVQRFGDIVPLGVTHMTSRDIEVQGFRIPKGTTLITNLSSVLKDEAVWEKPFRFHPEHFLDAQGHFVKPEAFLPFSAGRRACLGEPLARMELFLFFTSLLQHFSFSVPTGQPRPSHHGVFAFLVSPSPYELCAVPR

By inhibition is commonly meant the drop in the measured response relative to a control, in per cent. On to `C[C@@H]1CN(c2ccc(C#N)c3ncccc23)C[C@H](CN2CC(n3cc4c(n3)CNCC4)C2)O1` [Example 4, 5-[(2R,6S)-2-methyl-6-[[3-(4,5,6,7-tetrahydropyrazolo[3,4-c]pyridin-2-yl)azetidin-1-yl]methyl]morpholin-4-yl]quinoline-8-carbonitrile], for which the inhibition at 10 min, 10 µM in data set [1] came out at 7.5%. The IC50 in data set [2] was found to be 9 nM.

Turning to `C[C@@H]1CN(c2ccc(C#N)c3ncccc23)C[C@H](CN2CC(n3cc4c(n3)CN(C)CC4)C2)O1` [Example 5, 5-[(2R,6S)-2-methyl-6-[[3-(6-methyl-5,7-dihydro-4H-pyrazolo[3,4-c]pyridin-2-yl)azetidin-1-yl]methyl]morpholin-4-yl]quinoline-8-carbonitrile], the inhibition at 10 min, 10 µM in data set [1] is -1.5%. In data set [2], the IC50 was 4 nM.

As to `CCN1CCc2cnn(C3CN(C[C@H]4CN(c5ccc(C#N)c6ncccc56)C[C@@H](C)O4)C3)c2C1` [Example 6, 5-[(2S,6R)-2-[[3-(6-ethyl-5,7-dihydro-4H-pyrazolo[3,4-c]pyridin-1-yl)azetidin-1-yl]methyl]-6-methyl-morpholin-4-yl]quinoline-8-carbonitrile], the inhibition at 10 min, 10 µM in data set [1] came out at 8.5%. Further, the IC50 in data set [2] came out at 12 nM.

`CCN1CCc2cn(C3CN(C[C@H]4CN(c5ccc(C#N)c6ncccc56)C[C@@H](C)O4)C3)nc2C1` [Example 7, 5-[(2S,6R)-2-[[3-(6-ethyl-5,7-dihydro-4H-pyrazolo[3,4-c]pyridin-2-yl)azetidin-1-yl]methyl]-6-methyl-morpholin-4-yl]quinoline-8-carbonitrile]: the inhibition at 10 min, 10 µM in data set [1] is -19.5%. Also, in data set [2], the IC50 turned out to be 8 nM.

In the case of `CC(C)N1CCc2cnn(C3CN(C[C@H]4CN(c5ccc(C#N)c6ncccc56)C[C@@H](C)O4)C3)c2C1` [Example 8, 5-[(2S,6R)-2-[[3-(6-isopropyl-5,7-dihydro-4H-pyrazolo[3,4-c]pyridin-1-yl)azetidin-1-yl]methyl]-6-methyl-morpholin-4-yl]quinoline-8-carbonitrile], the inhibition at 10 min, 10 µM in data set [1] was determined as 11%. Besides, the IC50 in data set [2] came to 18 nM.

With `CC(C)N1CCc2cn(C3CN(C[C@H]4CN(c5ccc(C#N)c6ncccc56)C[C@@H](C)O4)C3)nc2C1` [Example 9, 5-[(2S,6R)-2-[[3-(6-isopropyl-5,7-dihydro-4H-pyrazolo[3,4-c]pyridin-2-yl)azetidin-1-yl]methyl]-6-methyl-morpholin-4-yl]quinoline-8-carbonitrile], the inhibition at 10 min, 10 µM in data set [1] amounted to 15%. In addition, the IC50 in data set [2] turned out to be 12 nM.

Turning to `C[C@@H]1CN(c2ccc(C#N)c3ncccc23)C[C@H](CN2CC(n3cc4c(n3)CNC4)C2)O1` [Example 11, 5-[(2S,6R)-2-[[3-(5,6-dihydro-4H-pyrrolo[3,4-c]pyrazol-2-yl)azetidin-1-yl]methyl]-6-methyl-morpholin-4-yl]quinoline-8-carbonitrile], the inhibition at 10 min, 10 µM in data set [1] was -6%. Moreover, the IC50 in data set [2] came to 17 nM.

`Cc1nn(C2CN(C[C@H]3CN(c4ccc(C#N)c5ncccc45)C[C@@H](C)O3)C2)c2c1CNCC2` [Example 12, 5-[(2R,6S)-2-methyl-6-[[3-(3-methyl-4,5,6,7-tetrahydropyrazolo[4,3-c]pyridin-1-yl)azetidin-1-yl]methyl]morpholin-4-yl]quinoline-8-carbonitrile]: the inhibition at 10 min, 10 µM in data set [1] amounted to 6%. Also, the IC50 in data set [2] was 15 nM.

With `Cc1c2c(nn1C1CN(C[C@H]3CN(c4ccc(C#N)c5ncccc45)C[C@@H](C)O3)C1)CCNC2` [Example 13, 5-[(2R,6S)-2-methyl-6-[[3-(3-methyl-4,5,6,7-tetrahydropyrazolo[4,3-c]pyridin-2-yl)azetidin-1-yl]methyl]morpholin-4-yl]quinoline-8-carbonitrile], the inhibition at 10 min, 10 µM in data set [1] came out at 3%. The IC50 in data set [2] is 14 nM.

For the compound `Cc1c2c(nn1C1CN(C[C@H]3CN(c4ccc(C#N)c5ncccc45)C[C@@H](C)O3)C1)CCN(C)C2` [Example 15, 5-[(2S,6R)-2-[[3-(3,5-dimethyl-6,7-dihydro-4H-pyrazolo[4,3-c]pyridin-2-yl)azetidin-1-yl]methyl]-6-methyl-morpholin-4-yl]quinoline-8-carbonitrile], in data set [1], the inhibition at 10 min, 10 µM is -10.5%. Moreover, in data set [2], the IC50 amounted to 9 nM.

As to `C[C@@H]1Cc2c(cnn2C2CN(C[C@H]3CN(c4ccc(C#N)c5ncccc45)C[C@@H](C)O3)C2)CN1` [Example 16, 5-[(2R,6S)-2-methyl-6-[[3-[(6R)-6-methyl-4,5,6,7-tetrahydropyrazolo[4,3-c]pyridin-1-yl]azetidin-1-yl]methyl]morpholin-4-yl]quinoline-8-carbonitrile], the inhibition at 10 min, 10 µM in data set [1] turned out to be 8%. Further, the IC50 in data set [2] was 4 nM.

Regarding `C[C@@H]1Cc2nn(C3CN(C[C@H]4CN(c5ccc(C#N)c6ncccc56)C[C@@H](C)O4)C3)cc2CN1` [Example 17, 5-[(2R,6S)-2-methyl-6-[[3-[(6R)-6-methyl-4,5,6,7-tetrahydropyrazolo[4,3-c]pyridin-2-yl]azetidin-1-yl]methyl]morpholin-4-yl]quinoline-8-carbonitrile], in data set [1], the inhibition at 10 min, 10 µM was 1.5%. In data set [2], the IC50 stood at 4 nM.

As for `C[C@@H]1CN(c2ccc(C#N)c3ncccc23)C[C@H](CN2CC(n3ncc4c3C[C@H](C)NC4)C2)O1` [Example 18, 5-[(2R,6S)-2-methyl-6-[[3-[(6S)-6-methyl-4,5,6,7-tetrahydropyrazolo[4,3-c]pyridin-1-yl]azetidin-1-yl]methyl]morpholin-4-yl]quinoline-8-carbonitrile], the inhibition at 10 min, 10 µM in data set [1] is -2.5%. Moreover, in data set [2], the IC50 stood at 17 nM.
